Test results as given in ChEMBL document CHEMBL1201862, “PubChem BioAssay data set” (2004).
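Where inhibition never reached the appropriate level, the endpoint shown equals the highest concentration tested. Otherwise, values were interpolated linearly from a five-concentration, 48-hour dose response in 96-well plates. Here, GI50 denotes the concentration required for 50% inhibition of growth.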 Active and inactive are the calls of the source. No stated cut-off is given here; in the data, active = GI50 up to about 1.1 µM and inactive = higher.

How the values were obtained:
Assay in all cases: DTP human tumour cell line panel, 48 h
OVCAR-4 = tested on: OVCAR-4
SNB-19 = tested on: SNB-19
NCI/ADR-RES = tested on: NCI/ADR-RES
HOP-92 = tested on: HOP-92
SK-MEL-28 = tested on: SK-MEL-28
Malme-3M = tested on: Malme-3M
A549 = tested on: A549
COLO 205 = tested on: COLO 205
HOP-62 = tested on: HOP-62
ACHN = tested on: ACHN
M14 = tested on: M14
NCI-H522 = tested on: NCI-H522
SW-620 = tested on: SW-620
SK-OV-3 = tested on: SK-OV-3
MDA-MB-231 = tested on: MDA-MB-231
NCI-H23 = tested on: NCI-H23
LOX IMVI = tested on: LOX IMVI
SF-295 = tested on: SF-295
UACC-62 = tested on: UACC-62
SR = tested on: SR

Measured: GI50

CC(C)[Si](OC1=C(C(=O)N(C)c2ccccc2Cl)CCCCC1)(C(C)C)C(C)C
inactive: OVCAR-4 > 100 µM | SNB-19 > 100 µM | NCI/ADR-RES > 100 µM | HOP-92 > 100 µM | SK-MEL-28 > 100 µM | Malme-3M > 100 µM | A549 > 100 µM | COLO 205 > 100 µM | HOP-62 > 100 µM | ACHN > 100 µM | M14 > 100 µM | NCI-H522 97.1 µM | SW-620 > 100 µM | SK-OV-3 > 100 µM | MDA-MB-231 > 100 µM | NCI-H23 > 100 µM | LOX IMVI > 100 µM | SF-295 > 100 µM

OC1(c2ccccc2)CC2CCC(C1)N2CCc1ccccc1 (stereo not drawn)
inactive: OVCAR-4 72.8 µM | SNB-19 93.1 µM | NCI/ADR-RES > 100 µM | HOP-92 43.8 µM | SK-MEL-28 68.4 µM | Malme-3M > 100 µM | UACC-62 80.4 µM | SR > 100 µM | A549 49.8 µM | COLO 205 17.6 µM | HOP-62 45.4 µM | ACHN 34.7 µM | M14 35.6 µM | SW-620 48.9 µM | SK-OV-3 > 100 µM | MDA-MB-231 73.6 µM | NCI-H23 53.6 µM | LOX IMVI 54.7 µM | SF-295 34.6 µM

COc1ccc2c(c1)CCc1c-2n(CCN2CCOCC2)c2ccc(OC)cc12
inactive: OVCAR-4 > 100 µM | NCI/ADR-RES > 100 µM | HOP-92 > 100 µM | SK-MEL-28 > 100 µM | Malme-3M 75.2 µM | UACC-62 > 100 µM | SR 10.5 µM | A549 60.3 µM | COLO 205 32.8 µM | HOP-62 > 100 µM | ACHN 82.2 µM | M14 28 µM | NCI-H522 > 100 µM | SW-620 48.8 µM | SK-OV-3 > 100 µM | MDA-MB-231 > 100 µM | NCI-H23 > 100 µM | SF-295 61.4 µM

CN1C2CCC1CC(=CCOC(c1ccc(F)cc1)c1ccc(F)cc1)C2
inactive: OVCAR-4 16.2 µM | SNB-19 21.2 µM | NCI/ADR-RES 23.3 µM | SK-MEL-28 18.9 µM | Malme-3M 13.2 µM | UACC-62 15.1 µM | SR 15.8 µM | A549 17.1 µM | COLO 205 11 µM | HOP-62 17.7 µM | ACHN 17.4 µM | M14 16.4 µM | NCI-H522 11.6 µM | SW-620 30.8 µM | SK-OV-3 17 µM | MDA-MB-231 17.9 µM | NCI-H23 17.7 µM | LOX IMVI 16.8 µM | SF-295 16.9 µM

C[C@@H]1C(=O)CC2(O)[C@@]13C[C@@H](OC(=O)[C@@H]3O)[C@@H](C)[C@@]21COC1=O (stereo partly drawn)
inactive: OVCAR-4 > 100 µM | SNB-19 > 100 µM | NCI/ADR-RES > 100 µM | SK-MEL-28 > 100 µM | Malme-3M > 100 µM | UACC-62 > 100 µM | SR > 100 µM | A549 > 100 µM | COLO 205 > 100 µM | HOP-62 > 100 µM | ACHN > 100 µM | M14 > 100 µM | NCI-H522 > 100 µM | SW-620 > 100 µM | SK-OV-3 > 100 µM | MDA-MB-231 > 100 µM | NCI-H23 > 100 µM | LOX IMVI > 100 µM | SF-295 > 100 µM

CCOC(=O)NC(C(=O)OCC)C(F)(F)F (stereo not drawn)
inactive: SNB-19 > 100 µM | NCI/ADR-RES > 100 µM | HOP-92 71.4 µM | SK-MEL-28 > 100 µM | Malme-3M > 100 µM | UACC-62 > 10 µM | SR 48.4 µM | A549 > 100 µM | COLO 205 > 100 µM | HOP-62 > 100 µM | ACHN > 100 µM | M14 > 100 µM | SW-620 > 100 µM | SK-OV-3 > 100 µM | MDA-MB-231 > 100 µM | NCI-H23 > 100 µM | LOX IMVI 76.6 µM | SF-295 > 100 µM

c1ccc2c3nnc(c2c1)SCCSCCCSCCS3
inactive: OVCAR-4 2.9 µM | SNB-19 26.5 µM | NCI/ADR-RES 75.3 µM | HOP-92 37.2 µM | SK-MEL-28 > 100 µM | Malme-3M 29.6 µM | UACC-62 57.5 µM | A549 91 µM | COLO 205 > 100 µM | HOP-62 29.4 µM | ACHN 61.1 µM | M14 > 100 µM | NCI-H522 50.9 µM | SW-620 > 100 µM | SK-OV-3 27.8 µM | MDA-MB-231 22.1 µM | NCI-H23 > 100 µM | LOX IMVI > 100 µM | SF-295 31.4 µM

O=c1cc(NNc2ccc(F)cc2)[nH]c(=O)[nH]1
inactive: OVCAR-4 9.68 µM | SNB-19 19.3 µM | NCI/ADR-RES 28.2 µM | SK-MEL-28 18.3 µM | Malme-3M 19.8 µM | UACC-62 15.1 µM | SR 35.1 µM | A549 18.3 µM | COLO 205 16.5 µM | HOP-62 17.1 µM | ACHN 17.9 µM | M14 8.85 µM | SW-620 17.5 µM | SK-OV-3 39.1 µM | MDA-MB-231 17.1 µM | NCI-H23 29.4 µM | LOX IMVI > 100 µM | SF-295 > 100 µM

CN1CCC2(CC1)SSC1(CCN(C)CC1)S2
inactive: OVCAR-4 > 100 µM | SNB-19 69.3 µM | NCI/ADR-RES > 100 µM | HOP-92 > 100 µM | SK-MEL-28 > 100 µM | UACC-62 46.7 µM | SR > 100 µM | A549 > 100 µM | COLO 205 80.2 µM | HOP-62 > 100 µM | ACHN > 100 µM | M14 > 100 µM | SW-620 > 100 µM | SK-OV-3 > 100 µM | MDA-MB-231 > 100 µM | NCI-H23 > 100 µM | LOX IMVI 2.35 µM | SF-295 > 100 µM

O=C(Nc1ccccc1)c1cc2ccccc2c(/N=N\c2cccc([N+](=O)[O-])c2)c1O
inactive: OVCAR-4 97.5 µM | SNB-19 31 µM | NCI/ADR-RES > 100 µM | HOP-92 > 100 µM | SK-MEL-28 94.4 µM | Malme-3M 7.26 µM | UACC-62 > 100 µM | SR 38.2 µM | A549 > 100 µM | COLO 205 > 100 µM | HOP-62 41.1 µM | ACHN 31 µM | M14 > 100 µM | NCI-H522 5.56 µM | SW-620 > 100 µM | SK-OV-3 30.3 µM | MDA-MB-231 56.8 µM | NCI-H23 > 100 µM | SF-295 > 100 µM

CC#CS(=O)(=O)c1ccccc1
inactive: OVCAR-4 3.19 µM | SNB-19 14.2 µM | NCI/ADR-RES 10.4 µM | HOP-92 2.51 µM | SK-MEL-28 3.13 µM | Malme-3M 2.88 µM | UACC-62 3.24 µM | A549 16.1 µM | COLO 205 11.2 µM | HOP-62 21.7 µM | ACHN 3.57 µM | M14 5.87 µM | NCI-H522 1.62 µM | SW-620 3.78 µM | SK-OV-3 17.3 µM | MDA-MB-231 10.6 µM | NCI-H23 5.2 µM | LOX IMVI 5.45 µM | SF-295 3.56 µM

OC(CN1CCCCC1)c1ccc(/C=C/c2ccc(Cl)cc2)cc1 (stereo not drawn)
inactive: OVCAR-4 83.6 µM | SNB-19 > 100 µM | NCI/ADR-RES > 100 µM | HOP-92 50.6 µM | SK-MEL-28 22.3 µM | Malme-3M 60.3 µM | UACC-62 24.3 µM | SR > 100 µM | A549 > 100 µM | COLO 205 16.7 µM | HOP-62 94.8 µM | ACHN > 100 µM | M14 19.9 µM | NCI-H522 21.3 µM | SW-620 46.9 µM | SK-OV-3 > 100 µM | MDA-MB-231 > 100 µM | NCI-H23 > 100 µM | SF-295 40.7 µM

OCCN(C1=NCCN1)/[N+](=C/c1ccccc1O)[CH-]c1ccccc1O
inactive: OVCAR-4 > 100 µM | SNB-19 > 100 µM | NCI/ADR-RES 83.6 µM | Malme-3M > 100 µM | UACC-62 > 100 µM | SR > 100 µM | A549 > 100 µM | COLO 205 > 100 µM | HOP-62 > 100 µM | ACHN > 100 µM | M14 > 100 µM | NCI-H522 > 100 µM | SW-620 > 100 µM | SK-OV-3 > 100 µM | MDA-MB-231 > 100 µM | NCI-H23 > 100 µM | LOX IMVI > 100 µM | SF-295 > 100 µM

CCCCCCCCCCCCCCCCCCNC(=O)C(N)Cc1ccc(OCc2ccccc2)cn1 (stereo not drawn)
inactive: OVCAR-4 17.2 µM | SNB-19 19.8 µM | NCI/ADR-RES 20 µM | HOP-92 17.1 µM | SK-MEL-28 24.1 µM | Malme-3M 20.6 µM | UACC-62 16.7 µM | A549 19.5 µM | COLO 205 15.4 µM | HOP-62 19 µM | ACHN 24.1 µM | M14 17.9 µM | NCI-H522 18.7 µM | SW-620 23.2 µM | SK-OV-3 22.7 µM | MDA-MB-231 20.9 µM | NCI-H23 16.8 µM | LOX IMVI 17.4 µM | SF-295 24 µM

O=[N+]([O-])c1ccccc1S(=O)(=O)c1cccc2c1NCCC2
inactive: OVCAR-4 > 100 µM | SNB-19 65.2 µM | NCI/ADR-RES 29 µM | HOP-92 32.7 µM | SK-MEL-28 45.6 µM | Malme-3M 48.1 µM | UACC-62 24.2 µM | SR 48.2 µM | A549 31.9 µM | COLO 205 60.8 µM | HOP-62 72.6 µM | ACHN 55.8 µM | M14 82.8 µM | SW-620 > 100 µM | SK-OV-3 68.4 µM | MDA-MB-231 > 100 µM | LOX IMVI 39.1 µM | SF-295 31.5 µM
